The record followed here is patent US9187472B2 (AbbVie Inc., priority 2012, dated 2015).

For this test, the system named is PC3 cells. Put plainly: NAMPT Cell Proliferation Assay. The format is cell-based. Particulars: Homo sapiens, PC-3, 120 h, 5 days incubation, cell viability by Cell Titer Glo. The method, boiled down:
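IC50 values derive from sigmoidal dose-response fits of percent inhibition of PC3 viability, measured by luminescence after 5 days of compound treatment. Cells (500/well, RPMI containing 10% heat-inactivated FBS) are allowed to attach overnight, and compounds are tested at 10-fold dilutions between 10 μM and 1×10^−5 μM.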
Compound `O=C(NCc1ccn2ccnc2c1)c1ccc(C2CCN(C(=O)C3(c4ccccn4)CC3)CC2)cc1` [Example 966, N-(imidazo[1,2-a]pyridin-7-ylmethyl)-4-(1-{[1-(pyridin-2-yl)cyclopropyl]carbonyl}piperidin-4-yl)benzamide] showed an IC50 of 2.09 nM.
Consider `CN1CCC(C(=O)N2CCC(c3ccc(C(=O)NCc4ccc5ncnn5c4)s3)CC2)CC1` [Example 851, 5-{1-[(1-methylpiperidin-4-yl)carbonyl]piperidin-4-yl}-N-([1,2,4]triazolo[1,5-a]pyridin-6-ylmethyl)thiophene-2-carboxamide], for which inhibition was half-maximal at 133 nM (IC50).
The compound `N#Cc1cnc(C(=O)N2CCC(c3ccc(C(=O)NCc4ccn5ccnc5c4)cc3)CC2)c(Cl)c1` [Example 1089, 4-{1-[(3-chloro-5-cyanopyridin-2-yl)carbonyl]piperidin-4-yl}-N-(imidazo[1,2-a]pyridin-7-ylmethyl)benzamide] displayed a concentration for half-maximal inhibition (IC50) of 8.27 nM.
In turn, `O=C(NCc1cn2ccnc2cn1)c1ccc(C2CCN(S(=O)(=O)c3ccccc3)CC2)cc1` [Example 864, N-(imidazo[1,2-a]pyrazin-6-ylmethyl)-4-[1-(phenylsulfonyl)piperidin-4-yl]benzamide] registered a half-maximal inhibitory concentration (IC50) of 67.2 nM.
In turn, `CCc1nc(C(=O)N2CCC(c3ccc(NC(=O)NCc4ccn5ccnc5c4)cc3)CC2)cs1` [Example 1058, 1-(4-{1-[(2-ethyl-1,3-thiazol-4-yl)carbonyl]piperidin-4-yl}phenyl)-3-(imidazo[1,2-a]pyridin-7-ylmethyl)urea] yielded an IC50 of 2.49 nM.
`COc1ccccc1CC(=O)N1CCC(c2ccc(NC(=O)NCc3ccn4ccnc4c3)cc2)CC1` [Example 947, 1-(imidazo[1,2-a]pyridin-7-ylmethyl)-3-(4-{1-[(2-methoxyphenyl)acetyl]piperidin-4-yl}phenyl)urea] came in with an IC50 of 3.28 nM.
`O=C(NCc1ccn2ccnc2c1)c1ccc(-c2cnn(CC34CC5CC(CC(C5)O3)C4)c2)s1` [Example 886] showed an IC50 of 0.194 nM.
Compound `O=C(NCc1ccn2ccnc2c1)c1ccc(C2CCN(C(=O)N3CCCC3)CC2)cc1` [Example 958, N-(imidazo[1,2-a]pyridin-7-ylmethyl)-4-[1-(pyrrolidin-1-ylcarbonyl)piperidin-4-yl]benzamide] came in with an IC50 of 21.4 nM.
Regarding `Cn1nc2c(c1C(=O)N1CCC(c3ccc(C(=O)NCc4ccn5ccnc5c4)cc3)CC1)CCCC2` [Example 961, N-(imidazo[1,2-a]pyridin-7-ylmethyl)-4-{1-[(2-methyl-4,5,6,7-tetrahydro-2H-indazol-3-yl)carbonyl]piperidin-4-yl}benzamide], the midpoint of inhibition, the IC50, lay at 8.94 nM.
Take `CC1(Cn2cc(-c3ccc(C(=O)NCc4ccn5ccnc5c4)s3)cn2)CCN(CCN2CCNCC2)CC1` [Example 1163, N-(imidazo[1,2-a]pyridin-7-ylmethyl)-5-[1-({4-methyl-1-[2-(piperazin-1-yl)ethyl]piperidin-4-yl}methyl)-1H-pyrazol-4-yl]thiophene-2-carboxamide]: inhibition was half-maximal at 2.7 nM (IC50). This IC50 is about 3.3-fold lower than that of the compound before.
As to `Cc1cc(C(=O)N2CCC(c3ccc(NC(=O)NCc4ccn5ccnc5c4)cc3)CC2)n(C(C)(C)C)n1` [Example 1029, 1-(4-{1-[(1-tert-butyl-3-methyl-1H-pyrazol-5-yl)carbonyl]piperidin-4-yl}phenyl)-3-(imidazo[1,2-a]pyridin-7-ylmethyl)urea], half-maximal inhibition (IC50) required 0.272 nM. Against the preceding compound, the IC50 is about 9.9-fold lower.
In the case of `COc1ccccc1CC(=O)Nc1ccc(C(=O)NCc2ccn3ccnc3c2)cc1` [Example 867, N-(imidazo[1,2-a]pyridin-7-ylmethyl)-4-{[(2-methoxyphenyl)acetyl]amino}benzamide], the IC50 stood at 68.7 nM.
`O=C(CC1CCCC1)Nc1ccc(C(=O)NCc2cn3c(Cl)cnc3cn2)cc1` [Example 901, N-[(3-chloroimidazo[1,2-a]pyrazin-6-yl)methyl]-4-[(cyclopentylacetyl)amino]benzamide] showed an IC50 of 865 nM.
As for `O=C(NCc1ccn2ccnc2c1)c1ccc(NC(=O)c2ccccc2)cc1` [Example 869, 4-(benzoylamino)-N-(imidazo[1,2-a]pyridin-7-ylmethyl)benzamide], the IC50 is 6870 nM.
Next, `CCCc1c(C(=O)N2CCC(c3ccc(C(=O)NCc4ccn5ccnc5c4)cc3)CC2)cnn1C` [Example 1105, N-(imidazo[1,2-a]pyridin-7-ylmethyl)-4-{1-[(1-methyl-5-propyl-1H-pyrazol-4-yl)carbonyl]piperidin-4-yl}benzamide]: 2.6 nM.
In turn, `O=C(NCc1ccn2ccnc2c1)Nc1ccc(C2CCN(C(=O)c3cnc4c(c3)CCCO4)CC2)cc1` [Example 1036, 1-{4-[1-(3,4-dihydro-2H-pyrano[2,3-b]pyridin-6-ylcarbonyl)piperidin-4-yl]phenyl}-3-(imidazo[1,2-a]pyridin-7-ylmethyl)urea] showed an IC50 of 16 nM.
In turn, `O=C(NCc1ccn2ccnc2c1)c1ccc(C2CCN(C(=O)c3cc4ccccn4n3)CC2)cc1` [Example 1111, N-(imidazo[1,2-a]pyridin-7-ylmethyl)-4-[1-(pyrazolo[1,5-a]pyridin-2-ylcarbonyl)piperidin-4-yl]benzamide] gave a half-inhibitory concentration (IC50) of 62 nM.
Consider `O=C(NCc1ccn2ccnc2c1)c1ccc(C2CCN(C(=O)c3ccc4ccncc4c3)CC2)cc1` [Example 988, N-(imidazo[1,2-a]pyridin-7-ylmethyl)-4-[1-(isoquinolin-7-ylcarbonyl)piperidin-4-yl]benzamide], for which the IC50 came to 60.1 nM. This IC50 and that of the compound before are within 1.5-fold of each other.
`Cn1c(C(=O)N2CCC(c3ccc(NC(=O)NCc4ccn5ccnc5c4)cc3)CC2)cc2occc21` [Example 1045, 1-(imidazo[1,2-a]pyridin-7-ylmethyl)-3-(4-{1-[(4-methyl-4H-furo[3,2-b]pyrrol-5-yl)carbonyl]piperidin-4-yl}phenyl)urea] yielded an IC50 of 6.69 nM.
For the compound `N#Cc1ccccc1C(=O)N1CCC(c2ccc(NC(=O)NCc3ccn4ccnc4c3)c(F)c2)CC1` [Example 1076, 1-{4-[1-(2-cyanobenzoyl)piperidin-4-yl]-2-fluorophenyl}-3-(imidazo[1,2-a]pyridin-7-ylmethyl)urea], the concentration for half-maximal inhibition (IC50) stood at 5.7 nM.
`COc1ncccc1/C=C/C(=O)N1CCC(c2ccc(NC(=O)NCc3ccn4ccnc4c3)cc2)CC1` [Example 1039, 1-(imidazo[1,2-a]pyridin-7-ylmethyl)-3-(4-{1-[(2E)-3-(2-methoxypyridin-3-yl)prop-2-enoyl]piperidin-4-yl}phenyl)urea] had an IC50 of 6.87 nM.
Compound `O=C(NCc1ccn2ccnc2c1)c1ccc(C2CCN(C(=O)c3cccc4ccncc34)CC2)cc1` [Example 997, N-(imidazo[1,2-a]pyridin-7-ylmethyl)-4-[1-(isoquinolin-8-ylcarbonyl)piperidin-4-yl]benzamide] had an IC50 of 19.4 nM.
Under `O=C(NCc1ccn2ccnc2c1)c1ccc(C2CCN(C(=O)c3nc4ccccc4s3)CC2)cc1` [Example 1001, 4-[1-(1,3-benzothiazol-2-ylcarbonyl)piperidin-4-yl]-N-(imidazo[1,2-a]pyridin-7-ylmethyl)benzamide] stands 95.3 nM; under `O=C(NCc1ccn2ccnc2c1)c1ccc(C2CCN(C(=O)c3ccc(F)cc3F)CC2)s1` [Example 888, 5-[1-(2,4-difluorobenzoyl)piperidin-4-yl]-N-(imidazo[1,2-a]pyridin-7-ylmethyl)thiophene-2-carboxamide], 0.494 nM; under `O=C(CC1CCCC1)Nc1ccc(C(=O)NCc2ccc3nccn3n2)cc1` [Example 856, 4-[(cyclopentylacetyl)amino]-N-(imidazo[1,2-b]pyridazin-6-ylmethyl)benzamide], 657 nM.
